We go through one substance from PMC8011784, “Chronic peptide-based GIP receptor inhibition exhibits modest glucose metabolic changes in mice when administered either alone or combined with GLP-1 agonism” (PLoS ONE, 2021).

What all share (assay type): in vivo, mouse
Test [1] concerns DIO mice. Briefly: Chronic GIPA-1 study: body weight and food intake in DIO mice. The following applies: 28 days, HFD; liraglutide 0.2 mg/kg/day SC, GIPA-1 ~4.5 mg/kg/day osmotic minipump; n = 10; vs vehicle (combination: vs liraglutide). As for the experimental part:
23-week-old male C57BL/6JRj mice (n = 40), fed a HFD (SSNIFF® diet #12492[60% fat, 20% protein, 20% carbohydrate]) for 14 weeks, were distributed into 4 test groups and received daily either vehicle, liraglutide (0.2 mg/kg/day), GIPA-1 (~4.5 mg/kg/day) or liraglutide + GIPA-1 for 4 weeks while still maintained on HFD. GIPA-1 was delivered using minipumps in order to achieve sufficient GIPR antagonism based on the properties of this peptide (Fig 2A). Liraglutide was dissolved in phosphate-buffered saline (PBS) plus 0.1% bovine serum albumin (BSA) (vehicle 1) and GIPA-1 in DMSO/propylene glycol (50/50 volume per volume) (vehicle 2). 100 μL minipumps (Alzet) were filled with GIPA-1 (30 mg/mL) or vehicle 2 and kept in 0.9% saline at 37°C overnight. […] Fasted (4 hrs) blood glucose and insulin levels were measured on study day -3, 14 and 27. […] Blood glucose was measured before their daily dosing and at 0, 15, 30 60, 120, 180 min after glucose administration. Plasma insulin was measured at 0 and 15 min. Whole body weight and food intake were measured throughout the study period. […]
(§1) Fig 2 Effects of chronic GIPR antagonism on body weight, food intake, and fasting blood glucose and insulin. […] Statistical analysis was calculated using two-way ANOVA with Tukey’s post-hoc test and one-way ANOVA for AUC with Dunnett’s post-hoc test. *: p< 0.05, **: p < 0.01, ***: p < 0.001, ****: p<0.0001 compared to vehicle.

The subject of test [2] is DIO mice. Briefly: Chronic GIPA-1 study: circulating lipids, liver and fat depots in DIO mice. As to conditions: day 28, n = 10. The method, then:
23-week-old male C57BL/6JRj mice (n = 40), fed a HFD (SSNIFF® diet #12492[60% fat, 20% protein, 20% carbohydrate]) for 14 weeks, were distributed into 4 test groups and received daily either vehicle, liraglutide (0.2 mg/kg/day), GIPA-1 (~4.5 mg/kg/day) or liraglutide + GIPA-1 for 4 weeks while still maintained on HFD. GIPA-1 was delivered using minipumps in order to achieve sufficient GIPR antagonism based on the properties of this peptide (Fig 2A). Liraglutide was dissolved in phosphate-buffered saline (PBS) plus 0.1% bovine serum albumin (BSA) (vehicle 1) and GIPA-1 in DMSO/propylene glycol (50/50 volume per volume) (vehicle 2). 100 μL minipumps (Alzet) were filled with GIPA-1 (30 mg/mL) or vehicle 2 and kept in 0.9% saline at 37°C overnight. The minipump was placed subcutaneously through a 1-cm long incision in the neck with the animal under isoflurane anesthesia. Animals were treated with analgesics on day 0–3 (NSAID, carprofen […] SC QD). From day 0 (first dose) through day 28, mice received one of the following four treatments per day: (1) vehicle 1 (subcutaneous injection (SC)) and continuous infusion of vehicle 2 via osmotic minipump; (2) 0.2 mg/kg liraglutide (SC) and continuous infusion of vehicle 2 via osmotic minipump; (3) vehicle 1 (SC) and continuous infusion of GIPA-1 (~4.5 mg/kg/day; 56.8 nmol/kg/h) via osmotic minipump; and (4) liraglutide (0.2 mg/kg liraglutide, SC) plus continuous infusion of GIPA-1 (~4.5 mg/kg/day) via osmotic minipump. Dose levels of GIPA-1 were based on targeting plasma exposure levels sufficient to antagonise endogenous GIP and selected based on in vitro antagonism data. Fasted (4 hrs) blood glucose and insulin levels were measured on study day -3, 14 and 27. OGTT was performed on day 21 of the study. On the day of the OGTT the fasted animals received their daily doses of vehicles and liraglutide thirty minutes before receiving a glucose bolus (2 g/kg). Blood glucose was measured before their daily dosing and at 0, 15, 30 60, 120, 180 min after glucose administration. Plasma insulin was measured at 0 and 15 min. Whole body weight and food intake were measured throughout the study period. On the termination day (day 28), liver, epididymal fat depot, mesenteric fat depot, retroperitoneal fat depot and inguinal fat depot were dissected and weighted. Blood collected from the tail vein was used for determination of free fatty acids (FFAs) plasma concentration and blood collected via cardiac puncture was used for determination of terminal plasma triglyceride (TG) and total cholesterol (TC).
Fasting blood glucose was measured using a BIOSEN c-Line glucose meter (EKF-Diagnostics), insulin was measured using the Meso Scale Diagnostics platform, TG and TC were measured using commercial kits (Roche Diagnostics) on the Cobas C-501 autoanalyzer (Roche), and FFA levels were measured using a Wako Chemicals kit on the Cobas C-501 autoanalyzer, all according to the manufacturers’ instructions. Homeostatic model assessment of insulin resistance (HOMA-IR) was calculated using the following equation: [fasting serum glucose (mmol/L) × fasting serum insulin (pmol/L) / 22.5] to assess insulin resistance.
Fig 4 The effect of GIPR antagonism alone or in combination with liraglutide on lipid homeostasis in DIO mice. […] Statistical analysis was calculated using one-way ANOVA with Dunnett’s post-hoc test. *: p< 0.05, **: p < 0.01, ***: p < 0.001, ****: p<0.0001 compared to vehicle. […]

Test [3] concerns DIO mice. Description: Chronic GIPA-2 study: body weight and food intake in DIO mice. The following applies: 28 days, HFD; liraglutide 0.2 mg/kg SC daily, GIPA-2 10 mg/kg SC daily; n = 10; vs vehicle (combination: vs liraglutide). The method, then: For studying the chronic effects of GIPA-2, male C57BL/6JRj mice (n = 40) were fed a HFD (SSNIFF® diet #12492) for 43 weeks. DIO mice were randomized (n = 10 per group) based on baseline blood glucose and body weight. Liraglutide was dissolved in PBS plus 0.1% BSA (Vehicle1) and GIPA-2 in PBS (vehicle 2). Mice received one of the following four treatments daily for 28 days while still maintained on HFD: (1) vehicle 1 (SC) and vehicle 2 (SC); (2) 0.2 mg/kg liraglutide (SC) and vehicle 2; (3) vehicle 1 (SC) and 10 mg/kg GIPA-2 (SC); and (4) 0.2 mg/kg liraglutide (SC) plus 10 mg/kg GIPA-2 (SC). […] Fasted (4 hrs) blood glucose and insulin were measured on study day -4, 10 and 26. […] Blood glucose was measured before their daily dosing and at 0, 15, 30 60, 120, 180 and 240 min after glucose administration. […] Blood glucose was measured before their daily dosing and at 0, 15, 30 60, 120, 180 min after glucose administration. […]
as §1

Regarding liraglutide, in test [1], the body weight result was “reduced both body weight and food intake”; the cumulative food intake entry is “reduced both body weight and food intake”. In test [2], the “circulating total cholesterol (TC)” value is “significantly reduced circulating TC and liver TG concentrations”; the “liver TG” value was “significantly reduced circulating TC and liver TG concentrations”; the “plasma FFA” value is recorded as “no effect on either plasma TG or concentrations of circulating FFA”; the “plasma TG” value is “no effect on either plasma TG or concentrations of circulating FFA”. In addition, in test [2], the retroperitoneal fat weight result was “reduced in the GIPA-1 study in both the liraglutide and combination groups”. For the same substance, in test [3], the body weight result was “reduced both body weight and food intake”; the cumulative food intake entry was “reduced both body weight and food intake”.
